Results reported in US20040157891A1, “Inhibitor of cox” (FUJISAWA PHARMACEUTICAL CO., LTD., priority 2003, published 2004).

Experiments:
arthritic rats = assay: Analgesic activity: effect on adjuvant arthritis in rats (Randall-Selitto); assay type: in vivo, Lewis rats; settings: single dose 3.2 mg/kg; mechanical pain threshold of left hind paw 2 hrs after administration; ratio to non-treated rats
COX-I = biological target: T1, COX-I (Homo sapiens, UniProt P23219); assay: Whole blood assay for COX-I (TXB2 production); assay type: cell-based; settings: 1 hr at 37° C.
T1 construct: Fresh blood was collected by syringe without anticoagulants from volunteers with consent; from tissue; host or cells: fresh human whole blood from volunteers, left to clot; TXB2 read-out
Protocol: Whole blood assay for COX-I
Fresh blood was collected by syringe without anticoagulants from volunteers with consent. The subjects had no apparent inflammatory conditions and had not taken any medication for at least 7 days prior to blood collection.
500 μL Aliquots of human whole blood were immediately incubated with 2 μL of either dimethyl sulfoxide vehicle or a test compound at final concentrations for 1 hr at 37° C. to allow the blood to clot. Appropriate treatments (no incubation) were used as blanks. At the end of the incubation, 5 μL of 250 mM Indomethacin was added to stop the reaction. The blood was centrifuged at 6000×g for 5 min at 4° C. to obtain serum. A 100 μL aliquot of serum was mixed with 400 μL methanol for protein precipitation. The supernatant was obtained by centrifuging at 6000×g for 5 min at 4° C. and was assayed for TXB2 using an enzyme immunoassay kit according to the manufacturer's procedure. For a test compound, the results were expressed as percent inhibition of thromboxane B2(TXB2) production relative to control incubations containing dimethyl sulfoxide vehicle.
The data were analyzed by that a test compound at the indicated concentrations was changed log value and was applied simple linear regression. IC50 value was calculated by least squares method.

COX-II = biological target: T2, COX-II (Homo sapiens, UniProt P35354); assay: Whole blood assay for COX-II (LPS-induced PGE2 production); assay type: cell-based; settings: lipopolysaccharide 24 hrs at 37° C.
T2 construct: incubation of the blood with 10 μL of 5 mg/mL lipopolysaccharide for 24 hrs at 37° C. for induction of COX-II; from tissue; host or cells: heparinized fresh human whole blood from volunteers, LPS-stimulated for 24 h; PGE2 read-out
T2 sequence (P35354 18-604): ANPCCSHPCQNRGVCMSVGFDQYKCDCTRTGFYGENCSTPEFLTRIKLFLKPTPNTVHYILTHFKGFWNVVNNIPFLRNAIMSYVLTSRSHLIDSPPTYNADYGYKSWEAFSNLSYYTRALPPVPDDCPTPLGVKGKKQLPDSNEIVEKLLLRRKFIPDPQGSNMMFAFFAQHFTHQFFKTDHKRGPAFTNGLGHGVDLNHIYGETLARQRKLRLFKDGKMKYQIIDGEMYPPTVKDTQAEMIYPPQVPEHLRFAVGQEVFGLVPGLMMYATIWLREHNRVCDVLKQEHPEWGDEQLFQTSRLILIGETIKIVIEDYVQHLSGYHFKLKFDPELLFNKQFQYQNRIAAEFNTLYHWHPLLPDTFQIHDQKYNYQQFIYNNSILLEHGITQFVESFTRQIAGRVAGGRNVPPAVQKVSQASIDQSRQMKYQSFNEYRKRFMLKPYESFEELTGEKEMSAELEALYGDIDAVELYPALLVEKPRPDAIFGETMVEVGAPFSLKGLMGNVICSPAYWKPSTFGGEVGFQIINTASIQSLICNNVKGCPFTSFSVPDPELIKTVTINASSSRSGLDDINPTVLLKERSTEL
Protocol: Whole Blood Assay for COX-II
Fresh blood was collected in heparinized tubes by syringe from volunteers with consent. The subjects had no apparent inflammatory conditions and had not taken any medication for at least 7 days prior to blood collection.
500 μL aliquots of human whole blood were incubated with either 2 μL dimethyl sulfoxide vehicle or 2 μL of a test compound at final concentrations for 15 min at 37° C. This was followed by incubation of the blood with 10 μL of 5 mg/mL lipopolysaccharide for 24 hrs at 37° C. for induction of COX-II. Appropriate PBS treatments (no LPS) were used as blanks. At the end of the incubation, the blood was centrifuged at 6000×g for 5 min at 4° C. to obtain plasma. A 100 μL aliquot of plasma was mixed with 400 μL methanol for protein precipitation. The supernatant was obtained by centrifuging at 6000×g for 5 min at 4° C. and was assayed for prostaglandin E2 (PGE2) using a radioimmunoassay kit after conversion of PGE2 to its methyl oximate derivative according to the manufacturer's procedure.
For a test compound, the results were expressed as percent inhibition of PGE2 production relative to control incubations containing dimethyl sulfoxide vehicle. The data were analyzed by that a test compound at the indicated concentrations was changed log value and was applied simple linear regression. IC50 value was calculated by least squares method.

T1 sequence (P23219 24-599): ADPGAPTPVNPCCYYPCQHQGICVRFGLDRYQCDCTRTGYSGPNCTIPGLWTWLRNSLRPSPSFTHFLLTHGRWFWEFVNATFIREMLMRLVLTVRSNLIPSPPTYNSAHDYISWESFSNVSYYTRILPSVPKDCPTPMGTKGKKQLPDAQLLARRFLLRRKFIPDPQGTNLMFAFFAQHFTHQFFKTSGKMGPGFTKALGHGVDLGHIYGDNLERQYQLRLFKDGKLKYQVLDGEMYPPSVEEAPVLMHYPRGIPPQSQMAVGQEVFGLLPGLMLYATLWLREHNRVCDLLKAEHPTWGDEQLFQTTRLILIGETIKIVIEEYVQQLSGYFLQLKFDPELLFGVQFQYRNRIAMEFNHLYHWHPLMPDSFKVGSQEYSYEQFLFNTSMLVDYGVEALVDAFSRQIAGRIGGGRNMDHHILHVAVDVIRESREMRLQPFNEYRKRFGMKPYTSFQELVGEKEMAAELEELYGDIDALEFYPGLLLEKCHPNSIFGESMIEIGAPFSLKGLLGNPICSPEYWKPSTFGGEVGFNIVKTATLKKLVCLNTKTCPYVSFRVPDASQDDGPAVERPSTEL

| IC50 (COX-I) [µM] | IC50 (COX-II) [µM] | melting point [°C] | Structure (SMILES) | The coefficient of analgesic (arthritic rats) |
| --- | --- | --- | --- | --- |
| < 0.01 | > 0.1 | 126 to 128 | COc1ccc(-c2nc(C(F)F)oc2-c2ccc(OCCO)cc2)cn1 [Example 33, 2-{4-[2-(Difluoromethyl)-4-(6-methoxy-3-pyridinyl)-1,3-oxazol-5-yl]phenoxy}ethanol] | >1.5 |
|  |  | 87 to 89 | COc1ccc(-c2oc(C(F)F)nc2-c2ccc(OC)nc2)cc1 [Example 77, 5-[2-(Difluoromethyl)-5-(4-methoxyphenyl)-1,3-oxazol-4-yl]-2-methoxypyridine] |  |
|  |  | 156 to 158 | COc1ccc(-c2oc(C(=O)c3ccccc3)nc2-c2ccc(OC)nc2)cc1 [Example 73, [5-(4-Methoxyphenyl)-4-(6-methoxy-3-pyridinyl)-1,3-oxazol-2-yl](phenyl)methanone] |  |
|  |  | 133 to 135 | COc1ccc(-c2nc(C(N)=O)oc2-c2ccc(OC)cc2)cc1 [Example 2, 4,5-Bis(4-methoxyphenyl)-1,3-oxazole-2-carboxamide] |  |
| < 0.01 | > 0.1 |  | COc1ccc(-c2nc(C3CC3)oc2-c2ccc(OCCO)cc2)cn1 [Example 118, 2-{4-[2-Cyclopropyl-4-(6-methoxy-3-pyridinyl)-1,3-oxazol-5-yl]phenoxy}ethanol] | >1.5 |
|  |  | 85 to 86 | COCc1nc(-c2ccc(OC)cc2)c(-c2ccc(C#N)cc2)o1 [Example 80-3, 4-[2-(Methoxymethyl)-4-(4-methoxyphenyl)-1,3-oxazol-5-yl]benzonitrile] |  |
|  |  | 95 to 97 | CCOC(=O)c1nc(-c2ccc(OC)cc2)c(-c2ccc(OC)cc2)o1 [Example 1-2, Ethyl 4,5-bis(4-methoxyphenyl)-1,3-oxazole-2-carboxylate] |  |
|  |  | 139 to 140 | COc1ccc(-c2nc(C(C)=O)oc2-c2ccc(OC)cc2)cc1 [Example 5, 1-[4,5-Bis(4-methoxyphenyl)-1,3-oxazol-2-yl]ethanone] |  |
|  |  | 164 to 166 | COc1ccc(-c2nc(C(=O)c3ccccc3)oc2-c2ccc(OC)cc2)cc1 [Example 6, [4,5-Bis(4-methoxyphenyl)-1,3-oxazol-2-yl](phenyl)methanone] |  |
| < 0.01 | > 0.1 |  | COc1ccc(-c2nc(C3CC3)oc2-c2ccc(OCCNS(C)(=O)=O)cc2)cn1 [Example 122, N-(2-{4-[2-Cyclopropyl-4-(6-methoxy-3-pyridinyl)-1,3-oxazol-5-yl]phenoxy}ethyl)methanesulfonamide] | >1.5 |
| < 0.01 | > 0.1 |  | COc1ccc(-c2nc(C(F)(F)F)oc2-c2ccc(OCCNC(N)=O)cc2)cn1 [Example 55, N-(2-{4-[4-(6-Methoxy-3-pyridinyl)-2-(trifluoromethyl)-1,3-oxazol-5-yl]phenoxy}ethyl)urea] | >1.5 |
|  |  | 151 to 153 | COc1ccc(-c2oc(CO)nc2-c2ccc(C#N)cc2)cc1 [Example 79, 4-[2-(Hydroxymethyl)-5-(4-methoxyphenyl)-1,3-oxazol-4-yl]benzonitrile] |  |
| < 0.01 | > 0.1 |  | COc1ccc(-c2nc(C(F)(F)F)oc2-c2ccc(OCCNS(C)(=O)=O)cc2)cn1 [Example 54, N-(2-{4-[4-(6-Methoxy-3-pyridinyl)-2-(trifluoromethyl)-1,3-oxazol-5-yl]phenoxy}ethyl)methanesulfonamide] | >1.5 |
| < 0.01 | > 0.1 | 114 to 116 | COc1ccc(-c2nc(C(F)F)oc2-c2ccc(OCCO)cc2)cc1 [Example 12, 2-{4-[2-(Difluoromethyl)-4-(4-methoxyphenyl)-1,3-oxazol-5-yl]phenoxy}ethanol] | >1.5 |
